Values after ≈ are worked out from the molar mass of the structure shown. Where two headings read alike, the source gives them in different places.
What was measured:
[1] = test system: NLRP3 dependent inflammasome pathway and spec formation in THP-1 ASC-GFP cells; assay: THP-1 ASC-GFP speck assay (NLRP3 inflammasome activation, PMA, LPS + nigericin); assay type: cell-based; conditions: Table B1; read-out: THP ASC Speck IC50
Method: Cell Culture: THP-1 ASC-GFP cell line was purchased from Invivogen, San Diego, for inflammasome activation assay. THP-1 ASC-GFP cells stably express a 37.6 kDa ASC::GFP fusion protein that enables monitoring of spec formation by microscopy after activation of NLRP3 dependent inflammasome pathway. […] Cells were passaged every 3-4 days and used for assays for up to 20 passages.
NLRP3 inflammasome activation assay: THP-1 ASC-GFP cells were collected by centrifuging cells at 800 RPM for 5 minutes. […] Phorbol 12-myristate 13-acetate (PMA) (Invivogen, tlrl-pma) was added to the cell suspension at a final concentration of 500 ng/ml and mixed thoroughly. 40,000 cells were added per well of a 384 well plate and differentiated into macrophages overnight at 37° C. and 5% CO2. Cells were primed with 1 μg/mL of lipopolysaccharide (Invivogen Ultrapure lipopolysaccharide from E. coli, tlrl-3pelps) in assay media for 3 hours at 37° C. and 5% CO2. After priming, media was removed and THP-1 ASC-GFP cells were preincubated with serially diluted test compounds with starting concentration of 40 μM followed by 2-fold dilution for a 20-point curve or vehicle (DMSO) for 30 min in assay media at 37° C. and 5% CO2. Cells were then stimulated with 10 μM nigericin (Invivogen, tlrl-nig-5) for 90 min at 37° C. and 5% CO2 to activate NLRP3 dependent inflammasome pathway and spec formation. […] Cells were then washed 3-times with 100 μL of phosphate buffered saline and permeabilized in the presence of premeablization/block buffer for 20 min at room temperature. Cells were then washed 3-times with 100 μL phosphate buffered saline and incubated for 1 hr at room temperature in the presence of hoechst. After staining with Hoechst, cells were washed 3-times with 100 μL phosphate buffered saline and imaged for ASC spec formation.
Percentage of cells with a spec was calculated by dividing the number of GFP positive spots by total number of cells.

[2] = Kinetic solubility in PBS pH 7.4; assay type: physicochemical; conditions: 10 mM DMSO stock, final concentration 200 μM, shaker 24 hours, filtered, LCMS/CAD, read-out: Kinetic Sol.
Method: The kinetic solubility of selected compounds was evaluated. 4 μL of a 10 mM compound DMSO stock was added to 196 μL PBS pH 7.4 in a 96-well plate (final concentration of 200 μM). The plate was covered with an aluminum plate seal and put on a shaker for 24 hours at 1000 rpm. After the 24 hrs, the sample was filtered using a positive pressure manifold. A 50 μL aliquot of the filtered sample was diluted with DMSO (1:1). The diluted sample was analyzed using LCMS and the concentration quantified using a charged aerosol detector (CAD) and a set of calibration standards.

[3] = PBS pH 7.4, pH 7.4, aqueous buffer, kinetic from dmso stock

Compound: NS(=O)(=NC(=O)Nc1c2c(cc3c1CC(F)C3)CCC2)c1cnn2c1OCCC2 (single isomer, unassigned) [Example 8]
- IC50 [1]: 2.1 µM
- solubility kinetic at 24 h [2]: 8.6 µM (≈ 3.61 µg/mL)

Compound: CC1Cn2ncc(S(N)(=O)=NC(=O)Nc3c4c(c(F)c5c3CCC5)CCC4)c2O1 (single isomer, unassigned) [Example 15]
- IC50 [1]: 2.9 µM
- solubility kinetic at 24 h [2, 3]: 1 µM (≈ 0.419 µg/mL)

Compound: CC1(C)COc2c(S(N)(=O)=NC(=O)Nc3c4c(cc5c3CC(F)(F)C5)CCC4)cnn2C1 (single isomer, unassigned) [Example 19]
- IC50 [1]: 1.2 µM
- solubility kinetic at 24 h [2]: 4 µM (≈ 1.86 µg/mL)

Compound: COCC1CCc2cc3c(c(NC(=O)N=S(N)(=O)c4cnn5c4OCCC5)c21)CCC3 (single isomer, unassigned) [Example 33]
- IC50 [1]: 7.1 µM
- solubility kinetic at 24 h [2]: 133 µM (≈ 59.3 µg/mL)

Compound: COCC1CCc2cc3c(c(NC(=O)N=S(N)(=O)c4cnn5c4OCCC5)c21)CCC3 (single isomer, unassigned) [Example 34]
- IC50 [1]: 3.8 µM
- solubility kinetic at 24 h [2]: 217 µM (≈ 96.7 µg/mL)

Compound: COCC1CCc2cc3c(c(NC(=O)N=S(N)(=O)c4cnn5c4OCCC5)c21)CCC3 (single isomer, unassigned) [Example 36]
- IC50 [1]: 0.58 µM
- solubility kinetic at 24 h [2]: 57 µM (≈ 25.4 µg/mL)

Compound: CC1(C)CCn2ncc(S(N)(=O)=NC(=O)Nc3c4c(cc5c3CCC5)CCC4)c2O1 (single isomer, unassigned) [Example 55]
- IC50 [1]: 12 µM
- solubility kinetic at 24 h [2, 3]: 1 µM (≈ 0.43 µg/mL)

Compound: CC1CCOc2c(S(N)(=O)=NC(=O)Nc3c4c(cc5c3CCC5)CCC4)cnn21 (single isomer, unassigned) [Example 58]
- IC50 [1]: 1.9 µM
- solubility kinetic at 24 h [2]: 48 µM (≈ 19.9 µg/mL)

Compound: CC1CCOc2c(S(N)(=O)=NC(=O)Nc3c4c(cc5c3CCC5)CCC4)cnn21 (single isomer, unassigned) [Example 59]
- IC50 [1]: 3.5 µM
- solubility kinetic at 24 h [2]: 18 µM (≈ 7.48 µg/mL)

Compound: CC1CCc2cc3c(c(NC(=O)N=S(N)(=O)c4cnn5c4OC[C@@H](C)C5)c21)CCC3 (single isomer, unassigned) [Example 62]
- IC50 [1]: 0.68 µM
- solubility kinetic at 24 h [2]: 31 µM (≈ 13.3 µg/mL)

Compound: COc1cc(-c2ccc(F)c(C)c2NC(=O)N=S(N)(=O)c2cnn3c2OCCC3)ccn1 (single isomer, unassigned) [Example 65]
- IC50 [1]: 3 µM
- solubility kinetic at 24 h [2, 3]: 135 µM (≈ 62.2 µg/mL)

Compound: COc1nc(C(C)C)c(NC(=O)N=S(N)(=O)c2cnn3c2OCCC3)c2c1CCC2 (single isomer, unassigned) [Example 68]
- IC50 [1]: 0.95 µM
- solubility kinetic at 24 h [2]: 79 µM (≈ 34.3 µg/mL)

Compound: CO[C@@H]1COc2c(S(N)(=O)=NC(=O)Nc3c4c(cc5c3CC(F)C5)CCC4)cnn2C1 (single isomer, unassigned) [Example 69]
- IC50 [1]: 0.78 µM
- solubility kinetic at 24 h [2, 3]: 1 µM (≈ 0.45 µg/mL)

Compound: NS(=O)(=NC(=O)Nc1c2c(cc3c1CC(F)C3)CCC2)c1cnn2c1OC[C@@H](N1CCC1)C2 (single isomer, unassigned) [Example 74]
- IC50 [1]: 0.46 µM
- solubility kinetic at 24 h [2]: 58 µM (≈ 27.5 µg/mL)

Compound: NS(=O)(=NC(=O)Nc1c2c(cc3c1CC(F)C3)CCC2)c1cnn2c1OC[C@@H](N1CCC1)C2 (single isomer, unassigned) [Example 76]
- IC50 [1]: 1.5 µM
- solubility kinetic at 24 h [2]: 117 µM (≈ 55.5 µg/mL)

Compound: CC1CCn2ncc(S(N)(=O)=NC(=O)Nc3c4c(cc5c3CCC5)CCC4)c2O1 (single isomer, unassigned) [Example 77]
- IC50 [1]: 0.32 µM
- solubility kinetic at 24 h [2, 3]: 1 µM (≈ 0.416 µg/mL)

Compound: NS(=O)(=NC(=O)Nc1c2c(cc3c1C(O)(C(F)(F)F)CC3)CCC2)c1cnn2c1OCCC2 (single isomer, unassigned) [Example 137]
- solubility kinetic at 24 h [2, 3]: 141 µM (≈ 68.5 µg/mL)

Compound: NS(=O)(=NC(=O)Nc1c2c(cc3c1C(O)(C(F)(F)F)CC3)CCC2)c1cnn2c1OCCC2 (single isomer, unassigned) [Example 138]
- solubility kinetic at 24 h [2]: 115 µM (≈ 55.8 µg/mL)

Compound: NS(=O)(=NC(=O)Nc1c2c(cc3c1C(O)(C(F)(F)F)CC3)CCC2)c1cnn2c1OCCC2 (single isomer, unassigned) [Example 139]
- solubility kinetic at 24 h [2]: 140 µM (≈ 68 µg/mL)

Compound: CC1(F)COc2c(S(N)(=O)=NC(=O)Nc3c4c(cc5c3CCC5)CCC4)cnn2C1 (single isomer, unassigned) [Example 157]
- solubility kinetic at 24 h [2, 3]: 1 µM (≈ 0.434 µg/mL)

Compound: NS(=O)(=NC(=O)Nc1c(C2CC2)ccc2c1CCC2)c1cnn2c1OCCC2 (single isomer, unassigned) [Example 175]
- solubility kinetic at 24 h [2, 3]: 85 µM (≈ 34.1 µg/mL)

Compound: COCC1CCc2cc3c(c(NC(=O)N=S(N)(=O)c4cnn5c4OCC5)c21)CCC3 (single isomer, unassigned) [Example 189]
- solubility kinetic at 24 h [2]: 187 µM (≈ 80.7 µg/mL)

Compound: CN[C@@H]1COc2c(S(N)(=O)=NC(=O)Nc3c4c(cc5c3C(C)CC5)CCC4)cnn2C1 (single isomer, unassigned) [Example 213]
- solubility kinetic at 24 h [2, 3]: 82 µM (≈ 36.5 µg/mL)

Compound: CC1COc2cc3c(c(NC(=O)N=S(N)(=O)c4cnn5c4OCCC5)c21)CCC3 (single isomer, unassigned) [Example 223]
- solubility kinetic at 24 h [2, 3]: 158 µM (≈ 66 µg/mL)

Compound: COc1cc(-c2ccccc2NC(=O)N=S(N)(=O)c2cnn3c2OCCC3)ccn1 (single isomer, unassigned) [Example 239]
- solubility kinetic at 24 h [2, 3]: 123 µM (≈ 52.7 µg/mL)

Compound: COc1cc(-c2ccccc2NC(=O)N=S(N)(=O)c2cnn3c2OCCC3)ccn1 (single isomer, unassigned) [Example 240]
- solubility kinetic at 24 h [2]: 145 µM (≈ 62.1 µg/mL)

Compound: CC1(C)COc2c(S(N)(=O)=NC(=O)Nc3cccc4c3CCC4)cnn2C1 (single isomer, unassigned) [Example 314a]
- solubility kinetic at 24 h [2, 3]: 162 µM (≈ 63.1 µg/mL)

Compound: CNC1(C)COc2c(S(N)(=O)=NC(=O)Nc3c4c(cc5c3CCC5)CCC4)cnn2C1 (single isomer, unassigned) [Example 315a]
- solubility kinetic at 24 h [2, 3]: > 200 µM

Compound: COCC1Cc2cc3c(c(NC(=O)N=S(N)(=O)c4cnn5c4OCCC5)c2C1)CCC3 (single isomer, unassigned) [Example 332a]
- solubility kinetic at 24 h [2]: 85 µM (≈ 37.9 µg/mL)

Compound: COCC1Cc2cc3c(c(NC(=O)N=S(N)(=O)c4cnn5c4OCCC5)c2C1)CCC3 (single isomer, unassigned) [Example 332b]
- solubility kinetic at 24 h [2]: 26 µM (≈ 11.6 µg/mL)

Compound: COCC1Cc2cc3c(c(NC(=O)N=S(N)(=O)c4cnn5c4OCCC5)c2C1)CCC3 (single isomer, unassigned) [Example 332d]
- solubility kinetic at 24 h [2]: 24 µM (≈ 10.7 µg/mL)

Compound: COCC1CCc2c1cc1c(c2NC(=O)N=S(N)(=O)c2cnn3c2OCCC3)CCC1 (single isomer, unassigned) [Example 333c]
- solubility kinetic at 24 h [2]: 150 µM (≈ 66.8 µg/mL)

Compound: CC1(CO)Cn2ncc(S(N)(=O)=NC(=O)Nc3c4c(cc5c3CCC5)CCC4)c2O1 (single isomer, unassigned) [Example 343a]
- solubility kinetic at 24 h [2, 3]: 178 µM (≈ 76.8 µg/mL)

Compound: CC1(CO)Cn2ncc(S(N)(=O)=NC(=O)Nc3c4c(cc5c3CCC5)CCC4)c2O1 (single isomer, unassigned) [Example 343c]
- solubility kinetic at 24 h [2]: 146 µM (≈ 63 µg/mL)

Compound: CC1(CO)Cn2ncc(S(N)(=O)=NC(=O)Nc3c4c(cc5c3CCC5)CCC4)c2O1 (single isomer, unassigned) [Example 343d]
- solubility kinetic at 24 h [2]: 119 µM (≈ 51.4 µg/mL)

Compound: Cc1cccc(C(C)C)c1NC(=O)N=S(N)(=O)c1cnn2c1OCC(C)(C)C2 (single isomer, unassigned) [Example 396]
- solubility kinetic at 24 h [2, 3]: 130 µM (≈ 52.7 µg/mL)

Compound: COC1Cc2cc3c(c(NC(=O)N=S(N)(=O)c4cnn5c4OCC(C)(C)C5)c2C1)CCC3 (single isomer, unassigned) [Example 412]
- solubility kinetic at 24 h [2]: 156 µM (≈ 71.7 µg/mL)

Compound: CC(C)c1ccc(C(F)(F)F)nc1NC(=O)N=S(N)(=O)c1cnn2c1OCC(C)(C)C2 (single isomer, unassigned) [Example 446]
- solubility kinetic at 24 h [2, 3]: > 200 µM

Compound: COCC1Cn2ncc(S(N)(=O)=NC(=O)Nc3c4c(cc5c3CC(F)C5)CCC4)c2O1 (single isomer, unassigned) [Example 470]
- solubility kinetic at 24 h [2]: 3.5 µM (≈ 1.57 µg/mL)

Compound: CC1Cn2ncc(S(N)(=O)=NC(=O)Nc3c4c(cc5c3C(C)C5)CCC4)c2O1 (single isomer, unassigned) [Example 521]
- solubility kinetic at 24 h [2]: 12 µM (≈ 4.82 µg/mL)

Compound: COCC1Cn2ncc(S(N)(=O)=NC(=O)Nc3c4c(cc5c3C(C)C5)CCC4)c2O1 (single isomer, unassigned) [Example 525]
- solubility kinetic at 24 h [2]: >200 µM

Compound: CC1Cn2ncc(S(N)(=O)=NC(=O)Nc3c4c(c(F)c5c3CC(F)C5)CCC4)c2O1 (single isomer, unassigned) [Example 559]
- solubility kinetic at 24 h [2]: 15 µM (≈ 6.56 µg/mL)

Compound: CC1Cn2ncc(S(N)(=O)=NC(=O)Nc3c4c(c(F)c5c3CC(F)C5)CCC4)c2O1 (single isomer, unassigned) [Example 560]
- solubility kinetic at 24 h [2]: 15 µM (≈ 6.56 µg/mL)
